The target in one test is human P2X3 receptor (Homo sapiens (Human), UniProt P56373). The test can be described thus: Evaluation of human P2X3 receptor inhibitory activity (Fluo-3 calcium fluorescence, FDSS 3000, ATP stimulation).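 Further: stimulus was 50 nM ATP with fluorescence followed for 3 min, and the response per well was peak post-ATP fluorescence divided by the reading at measurement start.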 Type of test: cell-based. Conditions: C6BU-1 cells stably expressing human P2X3 receptor.
human P2X3 receptor, sequence (P56373 whole entry): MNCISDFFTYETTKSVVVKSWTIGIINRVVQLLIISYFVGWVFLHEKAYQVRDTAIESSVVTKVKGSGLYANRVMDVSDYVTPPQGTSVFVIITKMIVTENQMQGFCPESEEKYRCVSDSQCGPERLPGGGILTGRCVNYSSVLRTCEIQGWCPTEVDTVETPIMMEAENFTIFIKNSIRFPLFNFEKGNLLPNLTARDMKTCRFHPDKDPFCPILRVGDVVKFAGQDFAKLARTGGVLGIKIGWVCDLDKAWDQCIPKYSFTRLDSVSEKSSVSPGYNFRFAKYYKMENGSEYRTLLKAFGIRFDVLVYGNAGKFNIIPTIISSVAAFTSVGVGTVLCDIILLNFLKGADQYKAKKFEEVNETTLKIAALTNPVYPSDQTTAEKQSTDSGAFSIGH
Consider `CC(C)OCc1ccc(/N=c2\[nH]c(=O)n(C[C@H](C)C(=O)O)c(=O)n2Cc2ccc(Cl)cc2)cc1` [Compound I-0669], for which the IC50 (commonly the concentration that inhibits the measured activity by half) was found to be 193 nM. For the molecule `CCCOc1ccc(/N=c2\[nH]c(=O)n([C@H](C)[C@H](C)C(=O)OC)c(=O)n2Cc2ccc(C)cc2)cc1` [Compound I-1313], the IC50 is 62 nM. For the molecule `Cc1ccc(Cn2c(=O)n([C@H](C)[C@H](C)C(=O)O)c(=O)[nH]/c2=N\c2ccc(OC(C)C)c(C)c2)cc1` [Compound I-1339], the IC50 turned out to be 30 nM.

Regarding `CCCc1ccc(/N=c2\[nH]c(=O)n(C[C@H](C)C(=O)OC)c(=O)n2Cc2ccc(C)cc2)cc1OC` [Compound I-1360], the IC50 is 32 nM. Consider `COC(=O)[C@@H](C)Cn1c(=O)[nH]/c(=N\c2ccc(OCC(C)C)cc2)n(Cc2ccc(Cl)cc2)c1=O` [Compound I-0749], for which the half-inhibitory concentration (IC50) amounted to 27 nM. Same read-out and setting: the value for `O=c1[nH]/c(=N\c2ccc(Oc3ccnc(CO)c3)cc2)n(Cc2ccc(Cl)cc2)c(=O)n1CCO` [Compound I-1986] was 16 nM. The same measure, in the same setting: the value for `COC(=O)[C@@H](C)Cn1c(=O)[nH]/c(=N\c2ccc(OCC(F)F)c(C)c2)n(Cc2ccc(Cl)cc2)c1=O` [Compound I-0738] was 19 nM; that for `Cc1ccc(Cn2c(=O)n(C)c(=O)[nH]/c2=N\c2ccc(Oc3ccnc(C(=O)O)c3)cc2)cc1` [Compound I-2100] was 7 nM; that for `CCCn1c(=O)[nH]/c(=N\c2ccc(Oc3ccnc(C(=O)OC)c3)cc2)n(Cc2ccc(Cl)cc2)c1=O` [Compound I-2160] was 3 nM. With `CCn1c(=O)[nH]/c(=N\c2ccc(-n3cc(C(=O)OC)ccc3=O)cc2)n(Cc2ccc(Cl)cc2)c1=O` [Compound I-2033], the IC50 was 622 nM. As to `CCOC(=O)CC(C)(C)n1c(=O)[nH]/c(=N\c2ccc(OC(C)C)c(Cl)c2)n(Cc2ccc(Cl)cc2)c1=O` [Compound I-0810], the IC50 amounted to 16 nM. Still for that read-out and setting: the value for `Cc1cc(/N=c2\[nH]c(=O)n(CCC(=O)O)c(=O)n2Cc2ccc(Cl)cc2)ccc1CC(C)C` [Compound I-1255] was 48 nM; that for `Cc1cc(Oc2ccc(/N=c3\[nH]c(=O)[nH]c(=O)n3Cc3ccc(Cl)cc3)cc2)ccn1` [Compound I-1955] was 97 nM; that for `C[C@@H](C(=O)O)[C@H](C)n1c(=O)[nH]/c(=N\c2ccc(OC3CCC3)cc2)n(Cc2ccc(Cl)cc2)c1=O` [Compound I-1391] was 16 nM. Same read-out and setting: the value for `CC(C)Oc1ccc(/N=c2\[nH]c(=O)n(Cc3cc[nH]c(=O)c3)c(=O)n2Cc2ccc(Cl)cc2)cc1F` [Compound I-0650] was 20 nM. In the case of `COC(=O)C(C)(C)Cn1c(=O)[nH]/c(=N\c2ccc(OC(C)C)c(OC)c2)n(Cc2ccc(Cl)cc2)c1=O` [Compound I-1273], the IC50 is 7 nM.

Turning to `CCCc1ccc(/N=c2\[nH]c(=O)n(CCC(=O)OCC)c(=O)n2Cc2ccc(Cl)cc2)cc1C` [Compound I-1250], the 50% inhibitory concentration (IC50) came out at 54 nM.

In the case of `CC(C)Oc1ccc(/N=c2\[nH]c(=O)n(C(C)(C)CC(=O)O)c(=O)n2Cc2ccc(Cl)cc2)cc1Cl` [Compound I-0817], the IC50 is 27 nM.

`CC1Cc2cc(/N=c3\[nH]c(=O)n(C[C@H](C)C(=O)O)c(=O)n3Cc3ccc(Cl)cc3)ccc2O1` (stereo partly drawn) [Compound I-1466]: the IC50 is 121 nM.

Regarding `Cc1ccc(Cn2c(=O)n(CCC(=O)O)c(=O)[nH]/c2=N\c2ccc(OC(C)C)cc2F)cc1` [Compound I-2049], the IC50 came out at 85 nM.

The test is the same for the next values; noted with them: C6BU-1 cells stably expressing human P2X3 receptor, Fluo-3 fluorescence, FDSS 3000.
Take `CCOc1ccc(/N=c2\[nH]c(=O)n(C[C@@H](C)C(=O)OC)c(=O)n2Cc2ccc(C)cc2)cc1Cl` [Compound I-1106]: the IC50 came out at 7 nM. The same measure, in the same setting: the same measure for `CC[C@@H](C)Oc1ccc(/N=c2\[nH]c(=O)n(C[C@H](C)C(=O)O)c(=O)n2Cc2ccc(Cl)cn2)cc1Cl` [Compound I-1626]: 18 nM; for `Cc1ccc(Cn2c(=O)n(C[C@H](C)C(=O)O)c(=O)[nH]/c2=N\c2ccc(Cl)c(C(F)(F)F)c2)cc1` [Compound I-1003]: 229 nM.

For `CCc1oc2ccc(/N=c3\[nH]c(=O)n(CCCO)c(=O)n3Cc3ccc(Cl)cc3)cc2c1C` [Compound I-1625], the IC50 came to 6 nM. Turning to `Cc1nc2ccc(/N=c3\[nH]c(=O)n(CCC(CO)CO)c(=O)n3Cc3ccc(Cl)cc3)cc2s1` [Compound I-1853], the IC50 stood at 4 nM. Still for that read-out and setting: the same measure for `COC(=O)[C@@H](C)Cn1c(=O)[nH]/c(=N\c2ccc(C3CCCCC3)cc2)n(Cc2ccc(C)cc2)c1=O` [Compound I-1087]: 71 nM; for `COC(=O)[C@@H](C)Cn1c(=O)[nH]/c(=N\c2ccc3c(c2)CCCO3)n(Cc2ccc(Cl)cc2)c1=O` [Compound I-1102]: 148 nM.

In the case of `O=c1[nH]/c(=N\c2ccc(Oc3ccnc(O)c3)cc2)n(Cc2ccc(Cl)cc2)c(=O)n1C[C@H](O)CO` [Compound I-1731], the IC50 came to 5 nM. Still for that read-out and setting: the value for `COC(=O)[C@@H](C)Cn1c(=O)[nH]/c(=N\c2ccc3oc(C)c(C)c3c2)n(Cc2ccc(Cl)cc2)c1=O` [Compound I-1650] was 9 nM; that for `C[C@@H](C(=O)O)[C@H](C)n1c(=O)[nH]/c(=N\c2ccc3oc(-c4ccncc4)nc3c2)n(Cc2ccc(Cl)cc2)c1=O` [Compound I-1816] was 300 nM; that for `CCn1c(=O)[nH]/c(=N\c2ccc(Oc3cccc(CC(=O)O)c3)cc2)n(Cc2ccc(Cl)cc2)c1=O` [Compound I-1894] was 23 nM. Consider `CCOC(=O)CCn1c(=O)[nH]/c(=N\c2ccc(OC3CC3)c(Cl)c2)n(Cc2ccc(C)cc2)c1=O` [Compound I-1606], for which the IC50 is 15 nM. Same read-out and setting: the same measure for `CCCOc1ccc(/N=c2\[nH]c(=O)n([C@@H](C)[C@@H](C)C(=O)O)c(=O)n2Cc2ccc(Cl)cc2)cc1` [Compound I-0920]: 37 nM; for `C[C@@H](C(=O)O)[C@H](C)n1c(=O)[nH]/c(=N\c2ccc3[nH]ccc3c2)n(Cc2ccc(Cl)cc2)c1=O` [Compound I-1781]: 518 nM; for `CC(C)Oc1ccc(/N=c2\[nH]c(=O)n(CC3(C(=O)O)COC3)c(=O)n2Cc2ccc(Cl)cc2)cc1Cl` [Compound I-1011]: 21 nM.

As to `C[C@H](Oc1ccc(/N=c2\[nH]c(=O)n(C[C@H](C)C(=O)O)c(=O)n2Cc2ccc(Cl)cc2)cc1)C(F)(F)F` [Compound I-0933], the IC50 turned out to be 82 nM. `COC(=O)[C@H](C)Cn1c(=O)[nH]/c(=N\c2ccc(OCC3CC3)cc2)n(Cc2ccc(Cl)cc2)c1=O` [Compound I-1036]: the half-inhibitory concentration (IC50) worked out at 5 nM. In the case of `Cc1ccc(Cn2c(=O)n(C[C@H](C)C(=O)O)c(=O)[nH]/c2=N\c2ccc(Cl)c(Cl)c2)cc1` [Compound I-1004], the IC50 was 85 nM. On the same count and under the same terms, the same measure for `COC(=O)[C@@H](C)Cn1c(=O)[nH]/c(=N\c2ccc(O[C@@H](C)C(F)(F)F)cc2)n(Cc2ccc(Cl)cc2)c1=O` [Compound I-0943]: 61 nM. Regarding `CCc1oc2ccc(/N=c3\[nH]c(=O)n(CCNC(=O)C(F)(F)F)c(=O)n3Cc3ccc(Cl)cc3)cc2c1C` [Compound I-1565], the IC50 is 8 nM. The same measure, in the same setting: the same measure for `Cc1nc2ccc(/N=c3\[nH]c(=O)n(C[C@H](O)CO)c(=O)n3Cc3ccc(Cl)cc3)cc2s1` [Compound I-1618]: 8 nM.

The same test, now with this note: human P2X3 receptor, Test Example 1.
Take `Cc1ccc(Cn2c(=O)n(C)c(=O)[nH]/c2=N\c2ccc(Oc3cccc(/C=C/C(=O)O)c3)cc2)cc1` [Compound I-2363]: the IC50 was 9 nM. Same read-out and setting: the value for `CCn1c(=O)[nH]/c(=N\c2ccc(Oc3cc(C(=O)O)n(C)n3)cc2)n(Cc2ccc(Cl)cc2)c1=O` [Compound I-2491] was 74 nM; that for `CSc1n/c(=N\c2ccc(OC(C)C)cc2)n(Cc2ccc(Cl)cc2)c(=O)n1C(C)C` [Compound I-2301] was 437 nM; that for `NC(=O)c1ccc(Oc2ccc(/N=c3\[nH]c(=O)n(C[C@H](O)CO)c(=O)n3Cc3ccc(Cl)cc3)cc2)cc1` [Compound I-2546] was 6 nM. For the molecule `CCc1nc2ccc(/N=c3\[nH]c(=O)n(CCC(=O)O)c(=O)n3Cc3ccc(C)cc3)cc2s1` [Compound I-1510], the IC50 stood at 13 nM. Still for that read-out and setting: the same measure for `O=c1[nH]/c(=N\c2ccc(Oc3ccon3)cc2)n(Cc2ccc(F)cc2)c(=O)n1CCCO` [Compound I-2397]: 39 nM; for `CCOC(=O)CCn1c(=O)[nH]/c(=N\c2ccc3nc(CC)sc3c2)n(Cc2ccc(Cl)cc2)c1=O` [Compound I-1505]: 4 nM; for `CCn1c(=O)[nH]/c(=N\c2ccc(Oc3cc(C(=O)O)ccn3)cc2)n(Cc2ccc(Cl)cc2)c1=O` [Compound I-2250]: 8 nM.

On to `CCOC(=O)Cn1c(=O)[nH]/c(=N\c2ccc(Oc3cccc(F)n3)cc2)n(Cc2ccc(Cl)cc2)c1=O` [Compound I-2562], for which the IC50 was found to be 4 nM. On the same count and under the same terms, the value for `CCn1c(=O)[nH]/c(=N\c2ccc(Oc3cc(C(=O)O)ncn3)cc2)n(Cc2ccc(C)cc2)c1=O` [Compound I-2444] was 8 nM; that for `COC(=O)c1cncc(Oc2ccc(/N=c3\[nH]c(=O)n(C)c(=O)n3Cc3ccc(Cl)cc3)cc2)n1` [Compound I-2469] was 19 nM. With `CCn1c(=O)[nH]/c(=N\c2ccc(Oc3ccnc(NCC(=O)NC)c3)cc2)n(Cc2ccc(Cl)cc2)c1=O` [Compound I-2555], the concentration for half-maximal inhibition (IC50) turned out to be 16 nM. For the molecule `O=C(O)Cn1c(=O)[nH]/c(=N\c2ccc(Oc3cnsn3)cc2)n(Cc2ccc(Cl)cc2)c1=O` [Compound I-2643], the 50% inhibitory concentration (IC50) amounted to 491 nM.

In the case of `COc1cccc(Oc2ccc(/N=c3\[nH]c(=O)n(CC(CO)CO)c(=O)n3Cc3ccc(Cl)cc3)cc2)n1` [Compound I-2641], the IC50 was 12 nM. The same measure, in the same setting: the value for `CCn1c(=S)[nH]/c(=N\c2ccc(Oc3cncc(C(=O)O)c3)cc2)n(Cc2ccc(Cl)cc2)c1=O` [Compound I-2263] was 4 nM; that for `CC(CO)(CO)Cn1c(=O)[nH]/c(=N\c2ccc(OCC3CC3)cc2)n(Cc2ccc(Cl)cc2)c1=O` [Compound I-2616] was 12 nM; that for `CCn1c(=O)[nH]/c(=N\c2ccc(O[C@@H]3C[C@@H](C(=O)OC)N(C(=O)OC(C)(C)C)C3)cc2)n(Cc2ccc(Cl)cc2)c1=O` [Compound I-2265] was 299 nM. As for `NC(=O)Cn1c(=O)[nH]/c(=N\c2ccc(Oc3cnsn3)cc2)n(Cc2ccc(Cl)cc2)c1=O` [Compound I-2675], the IC50 turned out to be 13 nM.

Consider `CCn1c(=O)[nH]/c(=N\c2ccc(Oc3ccnnc3)cc2)n(Cc2ccc(Cl)cc2)c1=O` [Compound I-2600], for which the IC50 amounted to 4 nM.

For the origin of these results see patent US9718790B2, “Triazine derivative and pharmaceutical composition having an analgesic activity comprising the same” (SHIONOGI & CO., LTD., priority 2010, dated 2017).
